Reference: patent publication US6436913B1, “Use of estramustine phosphate in the treatment of bone metastasis” (Pharmacia & Upjohn Company, priority 2000, dated 2002)
Values belong to the compound of their own block, whether it stands above or below them.

Assays:
mouse calvaria = test: Bone resorption assay, organ culture with 45Ca-prelabeled mouse calvaria (PTH-stimulated 45Ca release); assay type: cell-based; settings: for Bone resorption (45Ca release), result in words: in vitro mouse calvaria, compound present during culture; for Resorption / PTH-stimulated 45Ca release, result in words / Resorption, result in words: present only during preincubation; for Resorption / PTH-stimulated 45Ca release, result in words: then washed away
Protocol: This example used the organ culture technique with mouse calvaria.
The organ culture technique was used with ^45Ca-prelabeled mouse calvaria. The method has been described by Lerner (1987) and Ljunggren et al. (1991). Newborn mice were injected subcutaneously with ^45CaCl (1.5 μCi/animal). After four days their calvaria were dissected, split into quarters and preincubated in phenol red free CMRL 1066 medium supplemented with 0.1% bovine serum albumin and 50 μg/ml gentamicin for 24 hours at 37° C. in a humidified atmosphere of 5% CO2 in air in the presence of indomethacin (1 μmol/l) and 10 nmol/l bovine parathyroid hormone (PTH). After washing the bone pieces, the medium was changed and cultures incubated for three more days in the same medium but without indomethacin in the presence or absence of estramustine phosphate or clodronate. Resorption was measured by assaying the ^45Ca liberated into the medium using a standard technique for liquid scintillation counting. Total ^45Ca was determined after hydrolysing the calvaria in 6 mol/l HCI overnight. Bone resorption was studied in various concentrations of estramustine phosphate and the effect of estramusine phosphate present only during the preincubation stage was checked in order to study its cytotoxcity.
Results are expressed as mean±SEM, n=5 or 10. Inhibition percentage was calculated as follows
Inhibition %=^45Ca released control bones (%)−^45Ca released from sample bones (%) ^45Ca released control bones*100

[1] = Mutual bioavailability of estramustine phosphate and clodronate: serum AUC0-24h and Cmax in patients; settings: for AUC0-24h Estracyt: serum, mean; for AUC0-24h and Cmax, drug alone versus concomitantly with the other drug / Bioavailability, effect of adding the other drug: patients, clodronate 3200 mg and estramustine phosphate 560 mg daily
Protocol: (§1) The first group of six patients were given 3200 mg daily of clodronate only for four days. On the fifth day the AUC0-24h for the drug was calculated from serum concentrations of repeated blood samples. On the sixth day, 560 mg estramustine phosphate was add per oral to the clodronate treatment for the following four days. On day ten, the AUC0-24h for both drugs was calculated.
(§2) The second group of six patients were give orally 560 mg daily of estramustine phosphate only for four days. On the fifth day the AUC0-24h for the drug was calculated from serum concentrations of repeated blood samples. On the sixth day, 3200 mg clodronate was added to the estramustine phosphate treatment for the following four days. On day ten, the AUC0-24h for both drugs was calculated. The clodronate was provided as 400 mg capsules, and the estramustine phosphate used was estracyt in 140 mg capsules.
(§3) The method used in the analysis of the serum estramustine phosphate concentrations measures estrone and is insensitive to any metabolites. The estradiol-related metabolites (estramustine and estradiol) were not analyized in connection with the bioanalysis.

clinical = settings: male, human, serum, oral, 3200 mg
Protocol: as §1, §2, §3

[2] = Experiment 2 (compound present only during preincubation), 100 μmol/l, mean±SEM

Compound: C[C@]12CC[C@@H]3c4ccc(OC(=O)N(CCCl)CCCl)cc4CC[C@H]3[C@@H]1CC[C@@H]2OP(=O)([O-])[O-].[Na+].[Na+] [Estramustine phosphate, Estramustine phosphate sodium]
- 45Ca-release (%) (mouse calvaria; Experiment 1, 0.01 μmol/l, mean±SEM): 51.5 ± 3.0%
- Inhibition % (mouse calvaria; Experiment 1, 0.01 μmol/l, mean±SEM, n=5 or 10): 5.5 ± 5.5%
- 45Ca-release (%) (mouse calvaria; Experiment 1, 0.1 μmol/l, mean±SEM): 50.6 ± 1.6%
- Inhibition % (mouse calvaria; Experiment 1, 0.1 μmol/l, mean±SEM, n=5 or 10): 7.2 ± 2.9%
- 45Ca-release (%) (mouse calvaria; Experiment 1, 1 μmol/l, mean±SEM): 55.4 ± 2.9%
- Inhibition % (mouse calvaria; Experiment 1, 1 μmol/l, mean±SEM, n=5 or 10): 2.0 ± 5.4%
- 45Ca-release (%) (mouse calvaria; Experiment 1, 10 μmol/l, mean±SEM): 34.7 ± 3.1%
- Inhibition % (mouse calvaria; Experiment 1, 10 μmol/l, mean±SEM, n=5 or 10): 34.7 ± 3.1%
- 45Ca-release (%) (mouse calvaria; Experiment 1, 100 μmol/l, mean±SEM): 16.7 ± 0.2%
- Inhibition % (mouse calvaria; Experiment 1, 100 μmol/l, mean±SEM, n=5 or 10): 65.3 ± 2.3%
- Inhibition % (mouse calvaria; Experiment 1, 1000 μmol/l (precipitate noted for estramustine phosphate), mean±SEM): 55.9 ± 0.6%
- 45Ca-release (%) (mouse calvaria; Experiment 1, 1000 μmol/l (precipitate), mean±SEM): 24.0 ± 2.2%
- Inhibition % (mouse calvaria; Experiment 2 (compound present only during preincubation), 10 μmol/l, mean±SEM): −17.9 ± 8.7%
- 45Ca-release (%) (mouse calvaria; [2]): 11.9 ± 0.6%
- Inhibition % (mouse calvaria; [2]): 70.4 ± 1.4%
- Bone resorption (45Ca release), result in words (mouse calvaria): inhibited bone resorption in this in vitro model concentration-dependently and about as effectively as clodronate
- Bone resorption (45Ca release), result in words (mouse calvaria; listed as estramustine phosphate sodium): dose-dependently inhibited
- Resorption / PTH-stimulated 45Ca release, result in words (mouse calvaria): PTH could not stimulate ^45Ca release from bones
- Resorption, result in words (mouse calvaria; 10 μmol/l): slightly increased
- Resorption, result in words (mouse calvaria; 100 μmol/l): strongly inhibited
- AUC0-24h Estracyt ([1]; Estracyt 560 mg daily concomitantly with Clodronate 3200 mg): 84.74 µM·h
- AUC0-24h Estracyt ([1]; Estracyt only, 560 mg daily orally): 47.38 µM·h
- AUC0-24h and Cmax, drug alone versus concomitantly with the other drug [1]: differed statistically
- Bioavailability, effect of adding the other drug [1]: almost doubled

- AUC(0-t) (clinical): 19300 ng·h/mL
- Cmax (clinical): 1580 ng/mL
- AUC0-24h and Cmax, drug alone versus concomitantly with the other drug [1]: did not differ significantly
- Bioavailability, effect of adding the other drug [1]: no effect
Compound: O=P(O)(O)C(Cl)(Cl)P(=O)(O)O [Clodronate, Disodium clodronate]
- inhibition at 0.1 µM (mouse calvaria; Mus musculus, Experiment 1, 0.1 μmol/l, mean±SEM, n=5 or 10): 0.9 ± 1.2%
- inhibition at 1 µM (mouse calvaria; Mus musculus, Experiment 1, 1 μmol/l, mean±SEM, n=5 or 10): 3.5 ± 4.2%
- inhibition at 10 µM (mouse calvaria; Mus musculus, Experiment 1, 10 μmol/l, mean±SEM, n=5 or 10): 28.3 ± 3.8%
- inhibition at 100 µM (mouse calvaria; Mus musculus, Experiment 1, 100 μmol/l, mean±SEM, n=5 or 10): 51.4 ± 1.9%
- inhibition at 1000 µM (mouse calvaria; Mus musculus, Experiment 1, 1000 μmol/l (precipitate noted for estramustine phosphate), mean±SEM): 25.7 ± 6.6%
- inhibition at 100 µM (mouse calvaria; Mus musculus, Experiment 2 (compound present only during preincubation), 100 μmol/l, mean±SEM): 55.9 ± 0.5%
- Resorption / PTH-stimulated 45Ca release, result in words (mouse calvaria): also inhibits resorption
